{"source": "PubChem BioAssay (NCI)", "assay_in_all_cases": "NCI tumour cell line growth inhibition, 48 h", "key": {"IGROV1 ovarian": {"system": "IGROV1 ovarian"}, "K-562 leukemia": {"system": "K-562 leukemia"}, "SK-MEL-5 melanoma": {"system": "SK-MEL-5 melanoma"}, "UACC-62 melanoma": {"system": "UACC-62 melanoma"}, "SF-295 CNS": {"system": "SF-295 CNS"}, "HCC-2998 colon": {"system": "HCC-2998 colon"}, "OVCAR-4 ovarian": {"system": "OVCAR-4 ovarian"}, "MALME-3M melanoma": {"system": "MALME-3M melanoma"}, "NCI-H226 lung": {"system": "NCI-H226 lung"}, "EKVX NSCLC": {"system": "EKVX NSCLC"}, "MDA-MB-435": {"system": "MDA-MB-435"}, "SNB-75 CNS": {"system": "SNB-75 CNS"}, "T-47D breast": {"system": "T-47D breast"}, "HCT-116 colon": {"system": "HCT-116 colon"}, "SF-268 CNS": {"system": "SF-268 CNS"}, "DU-145 prostate": {"system": "DU-145 prostate"}, "TK-10 renal": {"system": "TK-10 renal"}, "NCI-H23 lung": {"system": "NCI-H23 lung"}, "HOP-92 NSCLC": {"system": "HOP-92 NSCLC"}, "SW-620 colon": {"system": "SW-620 colon"}, "SR leukemia": {"system": "SR leukemia"}, "PC-3 prostate": {"system": "PC-3 prostate"}, "NCI-H460 lung": {"system": "NCI-H460 lung"}, "OVCAR-3 ovarian": {"system": "OVCAR-3 ovarian"}, "SNB-19 CNS": {"system": "SNB-19 CNS"}, "HS 578T breast": {"system": "HS 578T breast"}, "RPMI-8226 leukemia": {"system": "RPMI-8226 leukemia"}, "SK-MEL-2 melanoma": {"system": "SK-MEL-2 melanoma"}, "U251 CNS": {"system": "U251 CNS"}, "ACHN renal": {"system": "ACHN renal"}, "HCT-15 colon": {"system": "HCT-15 colon"}, "SK-OV-3 ovarian": {"system": "SK-OV-3 ovarian"}, "SN12C renal": {"system": "SN12C renal"}, "NCI/ADR-RES ovarian": {"system": "NCI/ADR-RES ovarian"}, "HOP-62 NSCLC": {"system": "HOP-62 NSCLC"}, "SF-539 CNS": {"system": "SF-539 CNS"}, "MCF7 breast": {"system": "MCF7 breast"}, "OVCAR-8 ovarian": {"system": "OVCAR-8 ovarian"}, "MDA-N": {"system": "MDA-N"}, "786-0 renal": {"system": "786-0 renal"}, "HL-60(TB) leukemia": {"system": "HL-60(TB) leukemia"}, "COLO 205 colon": {"system": "COLO 205 colon"}, "UO-31 renal": {"system": "UO-31 renal"}, "RXF 393 renal": {"system": "RXF 393 renal"}, "LOX IMVI melanoma": {"system": "LOX IMVI melanoma"}, "SK-MEL-28 melanoma": {"system": "SK-MEL-28 melanoma"}, "NCI-H522 lung": {"system": "NCI-H522 lung"}, "MOLT-4 leukemia": {"system": "MOLT-4 leukemia"}, "CCRF-CEM leukemia": {"system": "CCRF-CEM leukemia"}, "CAKI-1 renal": {"system": "CAKI-1 renal"}, "KM12 colon": {"system": "KM12 colon"}, "MDA-MB-231 breast": {"system": "MDA-MB-231 breast"}, "M14 melanoma": {"system": "M14 melanoma"}, "OVCAR-5 ovarian": {"system": "OVCAR-5 ovarian"}, "HT29 colon": {"system": "HT29 colon"}, "A498 renal": {"system": "A498 renal"}, "A549 NSCLC": {"system": "A549 NSCLC"}, "UACC-257 melanoma": {"system": "UACC-257 melanoma"}}, "note": "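Interpolation was linear, between the two tested concentrations surrounding the appropriate level; five concentrations were tested over 48 hours in 96-well plates. Here, GI50 denotes the concentration required for 50% inhibition of growth. TGI: total growth inhibition.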", "data": [{"smiles": "CC(C)=Cc1cc2c(cc1O)CCC1C2CC[C@@]2(C)C1CC[C@@H]2O", "note": "(stereo partly drawn)", "values": [{"measurement": "TGI", "setting": "IGROV1 ovarian", "result": 29.9, "unit": "µM"}, {"measurement": "TGI", "setting": "K-562 leukemia", "result": 13.8, "unit": "µM"}, {"measurement": "TGI", "setting": "SK-MEL-5 melanoma", "result": 19.3, "unit": "µM"}, {"measurement": "GI50", "setting": "UACC-62 melanoma", "result": 11, "unit": "µM"}, {"measurement": "TGI", "setting": "UACC-62 melanoma", "result": 24.7, "unit": "µM"}, {"measurement": "TGI", "setting": "SF-295 CNS", "result": 7.57, "unit": "µM"}, {"measurement": "TGI", "setting": "HCC-2998 colon", "result": 31.8, "unit": "µM"}, {"measurement": "TGI", "setting": "OVCAR-4 ovarian", "result": 61, "unit": "µM"}, {"measurement": "TGI", "setting": "MALME-3M melanoma", "result": 22.5, "unit": "µM"}, {"measurement": "TGI", "setting": "NCI-H226 lung", "result": 26.1, "unit": "µM"}, {"measurement": "TGI", "setting": "EKVX NSCLC", "result": 31.5, "unit": "µM"}, {"measurement": "GI50", "setting": "MDA-MB-435", "result": 3.02, "unit": "µM"}, {"measurement": "TGI", "setting": "MDA-MB-435", "result": 11.7, "unit": "µM"}, {"measurement": "TGI", "setting": "SNB-75 CNS", "result": 24.8, "unit": "µM"}, {"measurement": "TGI", "setting": "T-47D breast", "result": 89.5, "unit": "µM"}, {"measurement": "TGI", "setting": "HCT-116 colon", "result": 23.4, "unit": "µM"}, {"measurement": "TGI", "setting": "SF-268 CNS", "result": 36.2, "unit": "µM"}, {"measurement": "TGI", "setting": "DU-145 prostate", "result": 27.7, "unit": "µM"}, {"measurement": "TGI", "setting": "TK-10 renal", "result": 9.68, "unit": "µM"}, {"measurement": "TGI", "setting": "NCI-H23 lung", "result": 35.2, "unit": "µM"}, {"measurement": "TGI", "setting": "HOP-92 NSCLC", "result": 42.1, "unit": "µM"}, {"measurement": "TGI", "setting": "SW-620 colon", "result": 23.6, "unit": "µM"}, {"measurement": "TGI", "setting": "SR leukemia", "result": 6.94, "unit": "µM"}, {"measurement": "TGI", "setting": "PC-3 prostate", "result": 28.6, "unit": "µM"}, {"measurement": "TGI", "setting": "NCI-H460 lung", "result": 26.1, "unit": "µM"}, {"measurement": "GI50", "setting": "OVCAR-3 ovarian", "result": 5.27, "unit": "µM"}, {"measurement": "TGI", "setting": "OVCAR-3 ovarian", "result": 19.9, "unit": "µM"}, {"measurement": "TGI", "setting": "SNB-19 CNS", "result": 24.4, "unit": "µM"}, {"measurement": "TGI", "setting": "HS 578T breast", "result": 65.6, "unit": "µM"}, {"measurement": "TGI", "setting": "RPMI-8226 leukemia", "result": 26, "unit": "µM"}, {"measurement": "TGI", "setting": "SK-MEL-2 melanoma", "result": 32.7, "unit": "µM"}, {"measurement": "TGI", "setting": "U251 CNS", "result": 22.2, "unit": "µM"}, {"measurement": "TGI", "setting": "ACHN renal", "result": 29.5, "unit": "µM"}, {"measurement": "TGI", "setting": "HCT-15 colon", "result": 24.4, "unit": "µM"}, {"measurement": "TGI", "setting": "SK-OV-3 ovarian", "result": 35, "unit": "µM"}, {"measurement": "TGI", "setting": "SN12C renal", "result": 30, "unit": "µM"}, {"measurement": "TGI", "setting": "NCI/ADR-RES ovarian", "result": 28, "unit": "µM"}, {"measurement": "GI50", "setting": "HOP-62 NSCLC", "result": 15, "unit": "µM"}, {"measurement": "TGI", "setting": "HOP-62 NSCLC", "result": 31.7, "unit": "µM"}, {"measurement": "GI50", "setting": "SF-539 CNS", "result": 7.6, "unit": "µM"}, {"measurement": "TGI", "setting": "SF-539 CNS", "result": 22.4, "unit": "µM"}, {"measurement": "TGI", "setting": "MCF7 breast", "result": 37.4, "unit": "µM"}, {"measurement": "TGI", "setting": "OVCAR-8 ovarian", "result": 40.7, "unit": "µM"}, {"measurement": "TGI", "setting": "MDA-N", "result": 7.14, "unit": "µM"}, {"measurement": "TGI", "setting": "786-0 renal", "result": 25, "unit": "µM"}, {"measurement": "TGI", "setting": "HL-60(TB) leukemia", "result": 37.5, "unit": "µM"}, {"measurement": "TGI", "setting": "COLO 205 colon", "result": 32.7, "unit": "µM"}, {"measurement": "TGI", "setting": "UO-31 renal", "result": 27.4, "unit": "µM"}, {"measurement": "TGI", "setting": "RXF 393 renal", "result": 20.9, "unit": "µM"}, {"measurement": "TGI", "setting": "LOX IMVI melanoma", "result": 16.1, "unit": "µM"}, {"measurement": "TGI", "setting": "SK-MEL-28 melanoma", "result": 30.2, "unit": "µM"}, {"measurement": "TGI", "setting": "NCI-H522 lung", "result": 31.2, "unit": "µM"}, {"measurement": "TGI", "setting": "MOLT-4 leukemia", "result": 25.3, "unit": "µM"}, {"measurement": "TGI", "setting": "CCRF-CEM leukemia", "result": 40.8, "unit": "µM"}, {"measurement": "TGI", "setting": "CAKI-1 renal", "result": 29.5, "unit": "µM"}, {"measurement": "TGI", "setting": "KM12 colon", "result": 25.3, "unit": "µM"}, {"measurement": "TGI", "setting": "MDA-MB-231 breast", "result": 35.2, "unit": "µM"}, {"measurement": "TGI", "setting": "M14 melanoma", "result": 22.8, "unit": "µM"}, {"measurement": "TGI", "setting": "OVCAR-5 ovarian", "result": 31.8, "unit": "µM"}, {"measurement": "TGI", "setting": "HT29 colon", "result": 30.8, "unit": "µM"}, {"measurement": "TGI", "setting": "A498 renal", "result": 29.9, "unit": "µM"}, {"measurement": "TGI", "setting": "A549 NSCLC", "result": 27.5, "unit": "µM"}, {"measurement": "TGI", "setting": "UACC-257 melanoma", "result": 30.5, "unit": "µM"}]}]}
